Each compound was assayed against RORγt (Homo sapiens (Human), UniProt P51449) (assay: RORγt Gal fusion assay (Gal4 ligand binding reporter assay)). Conditions: RORγt inverse agonists.
Assay type: cell-based
Procedure: Human RORγ ligand binding assay was performed in 96-well format. The N-terminal DNA binding domains (DBD) of the native RORγ and RORγt receptors have been substituted with that of the yeast GAL4-DBD and RORγ is expressed constitutively in the cell line. Both agonist and inverse agonist activity can be detected. 10 mM compound stocks were diluted serially 1:3 with DMSO and further diluted with provided media to generate 10 titration points from 60 μM to 3 nM. These treatment conditions were added to the plates as 2× media in 100 μL volume. Each plate includes a positive control with 10 titration points as well as 6 negative control wells with vehicle only. Reporter cells were rapidly thawed and added to the plates in 100 μL volume. The plates were incubated for 24 hrs in a 37° C. humidified 5% CO2 incubator. Media was removed before the addition of room temperature Detection Substrate. After 5 minute incubation, the luminescence was quantified on a luminescence plate reader.

Sequence of RORγt (P51449 269-508): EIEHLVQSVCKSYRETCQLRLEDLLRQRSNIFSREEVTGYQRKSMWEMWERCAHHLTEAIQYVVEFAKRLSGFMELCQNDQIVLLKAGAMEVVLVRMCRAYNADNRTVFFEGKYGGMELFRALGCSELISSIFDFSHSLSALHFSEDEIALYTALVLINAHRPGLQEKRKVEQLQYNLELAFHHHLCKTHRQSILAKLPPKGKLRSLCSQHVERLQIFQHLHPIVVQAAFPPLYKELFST

Q: Which IC50 does the source give for `O=C(O)CC1CN(Cc2ccc(-c3ccc(C(O)(C(F)(F)F)C(F)(F)F)cc3)cc2)CCN1Cc1ccncc1` (stereo not shown) [Compound 21, 2-(4-((4′-(1,1,1,3,3,3-hexafluoro-2-hydroxypropan-2-yl)-[1,1′-biphenyl]-4-yl)methyl)-1-(pyridin-4-ylmethyl)piperazin-2-yl)acetic acid] here?
A: Its IC50 is > 10000 nM.

Q: `CCOC(=O)C1CN(Cc2ccc(-c3ccc(C(O)(C(F)(F)F)C(F)(F)F)cc3)cc2)CCN1Cc1ccncc1` (stereo not shown) [Compound 17, ethyl 4-((4′-(1,1,1,3,3,3-hexafluoro-2-hydroxypropan-2-yl)-[1,1′-biphenyl]-4-yl)methyl)-1-(pyridin-4-ylmethyl)piperazine-2-carboxylate] was tested. Which IC50 did it give?
A: The IC50 was < 1000 nM.

Q: How did the IC50 turn out when `CCOC(=O)CC1CN(Cc2ccc(-c3ccc(C(O)(C(F)(F)F)C(F)(F)F)cc3)cc2)CCN1Cc1ccncc1` (stereo not shown) [Compound 18, ethyl 2-(4-((4′-(1,1,1,3,3,3-hexafluoro-2-hydroxypropan-2-yl)-[1,1′-biphenyl]-4-yl)methyl)-1-(pyridin-4-ylmethyl)piperazin-2-yl)acetate] was run?
A: Its IC50 is < 1000 nM.

Q: `CC(C)OC(=O)CC1CN(Cc2ccc(-c3ccc(C(O)(C(F)(F)F)C(F)(F)F)cc3)cc2)CCN1Cc1ccncc1` (stereo not shown) [Compound 30, isopropyl 2-(4-((4′-(1,1,1,3,3,3-hexafluoro-2-hydroxypropan-2-yl)-[1,1′-biphenyl]-4-yl)methyl)-1-(pyridin-4-ylmethyl)piperazin-2-yl)acetate] was tested. Which IC50 did it give?
A: Its IC50 is < 1000 nM.

Q: How did the IC50 turn out when `CCOCCOC(=O)C[C@H]1CN(Cc2ccc(-c3ccc(C(O)(C(F)(F)F)C(F)(F)F)cc3)cc2)CCN1Cc1ccncc1` [Compound 51, 2-ethoxyethyl (S)-2-(4-((4′-(1,1,1,3,3,3-hexafluoro-2-hydroxypropan-2-yl)-[1,1′-biphenyl]-4-yl)methyl)-1-(pyridin-4-ylmethyl)piperazin-2-yl)acetate] was run?
A: Its IC50 is < 1000 nM.

Q: `CCOC(=O)CC1CN(Cc2ccncc2)CCN1Cc1ccc(-c2ccc(C(O)(C(F)(F)F)C(F)(F)F)cc2)cc1` (stereo not shown) [Compound 10, ethyl 2-(1-((4′-(1,1,1,3,3,3-hexafluoro-2-hydroxypropan-2-yl)-[1,1′-biphenyl]-4-yl)methyl)-4-(pyridin-4-ylmethyl)piperazin-2-yl)acetate] was tested. Which IC50 did it give?
A: Its IC50 is < 1000 nM.

Q: With `CCOCCOC(=O)CC1CN(Cc2ccc(-c3ccc(C(O)(C(F)(F)F)C(F)(F)F)cc3)cc2)CCN1Cc1ccncc1` (stereo not shown) [Compound 32, 2-ethoxyethyl 2-(4-((4′-(1,1,1,3,3,3-hexafluoro-2-hydroxypropan-2-yl)-[1,1′-biphenyl]-4-yl)methyl)-1-(pyridin-4-ylmethyl)piperazin-2-yl)acetate] as the compound, how does the IC50 read?
A: Its IC50 is < 1000 nM.

Q: For `CC(C)NC(=O)C1CN(Cc2ccncc2)CCN1Cc1ccc(-c2ccc(C(O)(C(F)(F)F)C(F)(F)F)cc2)cc1` (stereo not shown) [Compound 24, 1-((4′-(1,1,1,3,3,3-hexafluoro-2-hydroxypropan-2-yl)-[1,1′-biphenyl]-4-yl)methyl)-N-isopropyl-4-(pyridin-4-ylmethyl)piperazine-2-carboxamide], which IC50 is on record?
A: Its IC50 is > 10000 nM.

Q: Which IC50 does the source give for `CCOC(=O)C1CN(Cc2ccncc2)CCN1Cc1ccc(-c2ccc(C(O)(C(F)(F)F)C(F)(F)F)cc2)cc1` (stereo not shown) [Compound 9, ethyl 1-((4′-(1,1,1,3,3,3-hexafluoro-2-hydroxypropan-2-yl)-[1,1′-biphenyl]-4-yl)methyl)-4-(pyridin-4-ylmethyl)piperazine-2-carboxylate] here?
A: The IC50 was < 1000 nM.

Q: How did the IC50 turn out when `CCOC(=O)C[C@@H]1CN(Cc2ccc(-c3ccc(C(O)(C(F)(F)F)C(F)(F)F)cc3)cc2)CCN1Cc1ccncc1` [Compound 49, ethyl (R)-2-(4-((4′-(1,1,1,3,3,3-hexafluoro-2-hydroxypropan-2-yl)-[1,1′-biphenyl]-4-yl)methyl)-1-(pyridin-4-ylmethyl)piperazin-2-yl)acetate] was run?
A: The IC50 was < 1000 nM.

Q: How did the IC50 turn out when `O=C(O)C1CN(Cc2ccc(-c3ccc(C(O)(C(F)(F)F)C(F)(F)F)cc3)cc2)CCN1Cc1ccncc1` (stereo not shown) [Compound 20, 4-((4′-(1,1,1,3,3,3-hexafluoro-2-hydroxypropan-2-yl)-[1,1′-biphenyl]-4-yl)methyl)-1-(pyridin-4-ylmethyl)piperazine-2-carboxylic acid] was run?
A: Its IC50 is > 10000 nM.

Q: Which IC50 does the source give for `CCOC(=O)CC1CN(Cc2ccc(-c3ccc(C(O)(C(F)(F)F)C(F)(F)F)cc3)c(C)c2)CCN1Cc1ccncc1` (stereo not shown) [Compound 35, ethyl 2-(4-((4′-(1,1,1,3,3,3-hexafluoro-2-hydroxypropan-2-yl)-2-methyl-[1,1′-biphenyl]-4-yl)methyl)-1-(pyridin-4-ylmethyl)piperazin-2-yl)acetate] here?
A: Its IC50 is < 1000 nM.

Q: Which IC50 does the source give for `O=C(CC1CN(Cc2ccc(-c3ccc(C(O)(C(F)(F)F)C(F)(F)F)cc3)cc2)CCN1Cc1ccncc1)OCCO` (stereo not shown) [Compound 31, 2-hydroxyethyl 2-(4-((4′-(1,1,1,3,3,3-hexafluoro-2-hydroxypropan-2-yl)-[1,1′-biphenyl]-4-yl)methyl)-1-(pyridin-4-ylmethyl)piperazin-2-yl)acetate] here?
A: Its IC50 is < 1000 nM.

These compounds were tested on IMQ-induced psoriasis (assay: not given). Conditions: topical pre-treatment daily for 5 days, 4 hours before IMQ.

Q: How did the “ear and back skin thickness” value turn out when `C[C@H]1C[C@H]2[C@@H]3CCC4=CC(=O)C=C[C@]4(C)[C@@]3(F)[C@@H](O)C[C@]2(C)[C@@]1(O)C(=O)CCl` [clobetasol] was run?
A: The value was “significantly decreased”.

Q: And the histopathology scoring?
A: The histopathology scoring was “significantly decreased”.

Q: And the total psoriasis score?
A: The total psoriasis score was “significantly decreased”.
